For test [1], the target named is Large T antigen (Simian virus 40, UniProt P03070). In kind it is functional, Betapolyomavirus macacae.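 Also: Confirmatory-stage PubChem screen for compounds that inhibit SV40 T antigen.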
The target in test [2] is Glucose-6-phosphate 1-dehydrogenase (Homo sapiens, UniProt P11413). Put plainly: human G6PD enzyme inhibitors, dose response, selectivity assay for P. falciparum G6PD inhibitor project, biochemical, fluorescence (AID 504792). In kind it is functional.
Test [3] has as its target T1, Caspase-3 (Homo sapiens, UniProt P42574).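 Also: Dose-response selectivity test against caspase-3 for candidate inhibitors of sentrin-specific proteases (SENPs).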
T1 sequence (P42574 whole entry): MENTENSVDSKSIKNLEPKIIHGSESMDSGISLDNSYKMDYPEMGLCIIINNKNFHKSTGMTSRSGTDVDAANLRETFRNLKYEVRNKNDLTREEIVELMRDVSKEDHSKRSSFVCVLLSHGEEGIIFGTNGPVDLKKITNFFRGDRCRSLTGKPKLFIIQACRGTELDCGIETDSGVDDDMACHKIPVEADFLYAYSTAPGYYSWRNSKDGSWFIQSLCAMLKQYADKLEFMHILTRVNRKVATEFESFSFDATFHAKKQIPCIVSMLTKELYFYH
In kind it is functional.

The target of test [4] is T2, Sentrin-specific protease 7 (Homo sapiens, UniProt Q9BQF6).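 Also: Luminescence-based dose-response confirmation of ultra-high-throughput screening hits, measuring inhibition of SENP7.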
T2 sequence (Q9BQF6 whole entry): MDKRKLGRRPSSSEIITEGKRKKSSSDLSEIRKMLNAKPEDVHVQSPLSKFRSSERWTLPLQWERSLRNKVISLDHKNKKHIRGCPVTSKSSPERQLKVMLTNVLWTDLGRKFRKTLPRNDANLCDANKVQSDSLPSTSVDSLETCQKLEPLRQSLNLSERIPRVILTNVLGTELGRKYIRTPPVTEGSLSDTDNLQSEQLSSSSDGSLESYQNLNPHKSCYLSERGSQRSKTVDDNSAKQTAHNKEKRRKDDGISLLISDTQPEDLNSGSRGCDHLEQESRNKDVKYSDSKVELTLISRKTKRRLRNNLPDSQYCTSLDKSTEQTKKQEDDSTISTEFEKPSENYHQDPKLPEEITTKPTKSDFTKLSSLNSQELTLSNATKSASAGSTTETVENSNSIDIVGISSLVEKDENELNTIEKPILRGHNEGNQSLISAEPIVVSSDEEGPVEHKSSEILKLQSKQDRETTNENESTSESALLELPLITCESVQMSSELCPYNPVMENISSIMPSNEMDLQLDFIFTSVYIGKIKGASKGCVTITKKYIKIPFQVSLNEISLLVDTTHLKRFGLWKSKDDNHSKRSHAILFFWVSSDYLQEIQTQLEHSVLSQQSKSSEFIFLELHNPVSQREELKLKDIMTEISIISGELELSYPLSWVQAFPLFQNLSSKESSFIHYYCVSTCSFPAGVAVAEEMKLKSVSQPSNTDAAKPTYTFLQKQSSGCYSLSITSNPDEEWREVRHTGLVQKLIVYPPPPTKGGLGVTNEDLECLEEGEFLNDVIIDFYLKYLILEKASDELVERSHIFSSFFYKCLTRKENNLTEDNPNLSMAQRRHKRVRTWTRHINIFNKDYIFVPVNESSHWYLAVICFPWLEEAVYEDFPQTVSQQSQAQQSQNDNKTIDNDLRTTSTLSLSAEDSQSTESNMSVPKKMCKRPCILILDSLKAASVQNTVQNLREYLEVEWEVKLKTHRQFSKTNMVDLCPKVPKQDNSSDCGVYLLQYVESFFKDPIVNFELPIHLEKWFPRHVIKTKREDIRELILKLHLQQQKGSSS
The class given is functional.

The target in test [5] is T3, Sentrin-specific protease 6 (Homo sapiens, UniProt Q9GZR1).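 Also: Luminescence-based dose-response confirmatory assay of SENP6 inhibition, following up an ultra-high-throughput screen.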
T3 sequence (Q9GZR1 whole entry): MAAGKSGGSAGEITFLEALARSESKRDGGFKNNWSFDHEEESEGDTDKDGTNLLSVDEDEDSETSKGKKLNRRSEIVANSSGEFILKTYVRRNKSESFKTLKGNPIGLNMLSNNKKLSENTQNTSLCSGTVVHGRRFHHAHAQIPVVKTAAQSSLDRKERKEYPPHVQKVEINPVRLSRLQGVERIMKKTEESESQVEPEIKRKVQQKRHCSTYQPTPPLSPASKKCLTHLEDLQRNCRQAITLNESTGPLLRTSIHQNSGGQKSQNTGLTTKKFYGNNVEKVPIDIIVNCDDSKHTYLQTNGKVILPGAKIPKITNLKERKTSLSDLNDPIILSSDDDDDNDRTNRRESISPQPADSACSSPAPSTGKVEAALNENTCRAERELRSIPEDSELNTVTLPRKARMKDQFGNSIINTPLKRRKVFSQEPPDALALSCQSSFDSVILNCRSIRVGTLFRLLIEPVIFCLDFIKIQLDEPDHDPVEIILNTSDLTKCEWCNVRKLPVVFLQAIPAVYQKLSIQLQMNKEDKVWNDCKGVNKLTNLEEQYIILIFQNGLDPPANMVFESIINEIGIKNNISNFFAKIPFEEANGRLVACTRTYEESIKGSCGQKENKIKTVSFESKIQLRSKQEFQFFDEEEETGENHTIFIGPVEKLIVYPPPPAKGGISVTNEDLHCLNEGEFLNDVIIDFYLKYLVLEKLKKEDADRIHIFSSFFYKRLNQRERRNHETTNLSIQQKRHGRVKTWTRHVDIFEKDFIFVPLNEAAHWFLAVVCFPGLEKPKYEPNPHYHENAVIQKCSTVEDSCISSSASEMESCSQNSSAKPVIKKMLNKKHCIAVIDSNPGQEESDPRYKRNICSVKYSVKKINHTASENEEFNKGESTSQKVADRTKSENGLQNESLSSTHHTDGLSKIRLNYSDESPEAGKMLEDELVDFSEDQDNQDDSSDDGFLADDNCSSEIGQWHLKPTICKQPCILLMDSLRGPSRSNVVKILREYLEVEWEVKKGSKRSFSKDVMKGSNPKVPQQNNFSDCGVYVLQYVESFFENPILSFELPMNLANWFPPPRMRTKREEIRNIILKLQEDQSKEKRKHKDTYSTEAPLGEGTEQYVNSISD
The class given is functional.

Test [6] addresses T4, Sentrin-specific protease 8 (Homo sapiens, UniProt Q96LD8).
T4 sequence (Q96LD8 whole entry): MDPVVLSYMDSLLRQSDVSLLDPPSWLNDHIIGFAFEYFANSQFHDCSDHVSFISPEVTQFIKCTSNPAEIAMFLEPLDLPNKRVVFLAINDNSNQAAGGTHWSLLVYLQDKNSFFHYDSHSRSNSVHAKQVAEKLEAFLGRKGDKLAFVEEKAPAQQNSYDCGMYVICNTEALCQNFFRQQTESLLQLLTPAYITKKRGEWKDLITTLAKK
The class given is functional.

The target in test [7] is T5, RNA-binding protein pos-1 (Caenorhabditis elegans, UniProt G5EF15).
T5 sequence (G5EF15 whole entry): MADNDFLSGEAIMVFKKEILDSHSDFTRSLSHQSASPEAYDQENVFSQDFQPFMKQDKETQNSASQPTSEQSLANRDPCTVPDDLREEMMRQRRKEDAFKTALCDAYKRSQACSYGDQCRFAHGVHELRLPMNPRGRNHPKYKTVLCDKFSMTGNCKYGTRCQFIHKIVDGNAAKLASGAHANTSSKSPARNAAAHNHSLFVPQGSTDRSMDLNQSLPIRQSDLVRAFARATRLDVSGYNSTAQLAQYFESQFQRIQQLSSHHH
Put plainly: inhibitors of POS-1/mex-3 RNA binding, dose response, biochemical, fluorescence polarization (AID 1964).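 Also: purified POS-1 fused to maltose binding protein made in E. coli; potency of compounds blocking POS-1 binding to fluorescent RNA.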

The target in test [8] is T6, Zinc finger protein mex-5 (Caenorhabditis elegans, UniProt Q9XUB2).
T6 sequence (Q9XUB2 whole entry): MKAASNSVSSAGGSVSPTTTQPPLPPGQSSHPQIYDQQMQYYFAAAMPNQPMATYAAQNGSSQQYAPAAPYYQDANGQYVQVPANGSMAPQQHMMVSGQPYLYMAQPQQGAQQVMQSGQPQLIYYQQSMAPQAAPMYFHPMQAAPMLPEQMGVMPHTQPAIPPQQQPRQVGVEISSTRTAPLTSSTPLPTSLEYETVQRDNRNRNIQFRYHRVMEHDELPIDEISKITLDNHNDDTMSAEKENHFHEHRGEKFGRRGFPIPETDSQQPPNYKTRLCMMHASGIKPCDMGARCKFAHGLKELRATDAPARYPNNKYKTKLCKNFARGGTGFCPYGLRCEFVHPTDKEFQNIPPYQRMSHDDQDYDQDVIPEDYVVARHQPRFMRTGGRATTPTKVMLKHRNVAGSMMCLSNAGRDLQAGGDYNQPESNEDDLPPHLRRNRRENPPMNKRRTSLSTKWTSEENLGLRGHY
Description: MEX-5/TCR-2 RNA interaction inhibitors, dose response, biochemical, C. elegans, fluorescence polarization (AID 1960).

Test [9] concerns the target DNA dC->dU-editing enzyme APOBEC-3A (Homo sapiens, UniProt P31941). Put plainly: Dose Response confirmation of small molecule APOBEC3A DNA Deaminase Inhibitors via a fluorescence-based single-stranded DNA deaminase assay. [Related pubchem assays (depositor defined):AID493011, AID493024]. In kind it is functional.
Test [10] concerns the target DNA dC->dU-editing enzyme APOBEC-3G (Homo sapiens, UniProt Q9HC16). In kind it is functional.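 Also: Dose-response counterscreen measuring inhibition of APOBEC3G DNA deaminase activity, run while confirming APOBEC3A inhibitors.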
Test [11] has as its target UDP-galactopyranose mutase (Mycobacterium tuberculosis, UniProt P9WIQ1). Put plainly: Inhibitors of Mycobacterium tuberculosis UDP-galactopyranose mutase (UGM) enzyme Measured in Biochemical System Using Plate Reader - 2105-02_Inhibitor_Dose_CherryPick_Activity. [Related pubchem assays (depositor defined):AID504439].
The target of test [12] is T7, Tyrosine-protein phosphatase non-receptor type 7 (Homo sapiens, UniProt P35236).
T7 sequence (P35236 whole entry): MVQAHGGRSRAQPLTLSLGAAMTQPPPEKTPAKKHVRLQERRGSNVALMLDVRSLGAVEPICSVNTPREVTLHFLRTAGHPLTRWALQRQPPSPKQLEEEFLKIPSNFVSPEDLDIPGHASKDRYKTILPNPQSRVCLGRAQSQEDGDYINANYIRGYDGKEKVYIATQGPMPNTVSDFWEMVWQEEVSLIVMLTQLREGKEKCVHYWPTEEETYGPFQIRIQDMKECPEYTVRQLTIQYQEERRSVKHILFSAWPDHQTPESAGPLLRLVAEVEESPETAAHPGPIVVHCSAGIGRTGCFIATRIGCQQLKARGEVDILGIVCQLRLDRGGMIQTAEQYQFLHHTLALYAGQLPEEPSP
In kind it is functional.

The target of test [13] is T8, Tyrosine-protein phosphatase non-receptor type 22 (Homo sapiens, UniProt Q9Y2R2).
T8 sequence (Q9Y2R2 whole entry): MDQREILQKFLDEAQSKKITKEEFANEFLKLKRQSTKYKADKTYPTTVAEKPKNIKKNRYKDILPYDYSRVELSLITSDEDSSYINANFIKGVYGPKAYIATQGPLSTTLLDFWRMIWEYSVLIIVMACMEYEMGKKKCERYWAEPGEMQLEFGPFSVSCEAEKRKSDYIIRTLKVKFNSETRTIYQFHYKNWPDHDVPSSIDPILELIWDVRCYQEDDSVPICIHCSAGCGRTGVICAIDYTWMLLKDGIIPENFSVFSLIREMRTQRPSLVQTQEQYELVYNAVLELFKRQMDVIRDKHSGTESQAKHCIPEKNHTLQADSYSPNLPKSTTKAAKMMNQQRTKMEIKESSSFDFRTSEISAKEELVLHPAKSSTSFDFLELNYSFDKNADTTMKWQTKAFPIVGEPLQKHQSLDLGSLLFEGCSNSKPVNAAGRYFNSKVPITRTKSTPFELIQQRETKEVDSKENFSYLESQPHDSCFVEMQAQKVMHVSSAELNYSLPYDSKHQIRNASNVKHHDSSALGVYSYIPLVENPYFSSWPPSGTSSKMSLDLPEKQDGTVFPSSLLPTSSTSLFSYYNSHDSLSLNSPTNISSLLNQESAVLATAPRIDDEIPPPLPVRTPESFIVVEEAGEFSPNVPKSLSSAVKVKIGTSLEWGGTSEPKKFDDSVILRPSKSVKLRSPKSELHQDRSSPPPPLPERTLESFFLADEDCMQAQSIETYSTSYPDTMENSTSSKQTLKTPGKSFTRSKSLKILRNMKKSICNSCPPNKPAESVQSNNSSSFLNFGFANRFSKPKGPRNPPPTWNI
In kind it is functional.

For test [14], the target named is T8, Tyrosine-protein phosphatase non-receptor type 22. The class given is functional. The source holds these as a separate data set.

The source made the active and inactive calls. Rule as the data show it, for most assays here: actives have a measured IC50 and inactives only a lower limit.

For six compounds, IC50, EC50 and AC50 results are on record in ChEMBL document CHEMBL1201862, “PubChem BioAssay data set” (2004).

Glucose-6-phosphate 1-dehydrogenase, sequence (P11413 whole entry): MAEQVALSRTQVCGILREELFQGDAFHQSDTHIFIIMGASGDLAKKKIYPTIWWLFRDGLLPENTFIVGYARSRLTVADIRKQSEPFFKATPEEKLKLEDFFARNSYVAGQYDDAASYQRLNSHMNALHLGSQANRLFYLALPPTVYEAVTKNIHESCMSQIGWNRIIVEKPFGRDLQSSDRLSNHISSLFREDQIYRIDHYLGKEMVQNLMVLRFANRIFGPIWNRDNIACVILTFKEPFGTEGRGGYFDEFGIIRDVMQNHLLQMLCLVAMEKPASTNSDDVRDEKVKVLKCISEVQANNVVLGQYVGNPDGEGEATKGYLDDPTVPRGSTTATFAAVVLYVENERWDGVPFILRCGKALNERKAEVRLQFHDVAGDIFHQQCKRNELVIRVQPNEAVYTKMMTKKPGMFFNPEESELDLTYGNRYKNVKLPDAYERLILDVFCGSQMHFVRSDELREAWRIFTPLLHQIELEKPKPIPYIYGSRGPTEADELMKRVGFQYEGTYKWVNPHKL
UDP-galactopyranose mutase, sequence (P9WIQ1 whole entry): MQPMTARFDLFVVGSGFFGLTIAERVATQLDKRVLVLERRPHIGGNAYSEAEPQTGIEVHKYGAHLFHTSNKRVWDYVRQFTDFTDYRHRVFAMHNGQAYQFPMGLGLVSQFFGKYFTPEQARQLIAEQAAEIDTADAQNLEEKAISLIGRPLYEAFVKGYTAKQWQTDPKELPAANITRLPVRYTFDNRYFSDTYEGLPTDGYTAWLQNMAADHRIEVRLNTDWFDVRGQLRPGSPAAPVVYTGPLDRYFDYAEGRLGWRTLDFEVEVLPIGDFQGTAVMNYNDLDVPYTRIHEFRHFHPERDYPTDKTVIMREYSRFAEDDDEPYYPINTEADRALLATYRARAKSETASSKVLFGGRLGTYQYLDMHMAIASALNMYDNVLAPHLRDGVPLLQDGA
DNA dC->dU-editing enzyme APOBEC-3A, sequence (P31941 whole entry): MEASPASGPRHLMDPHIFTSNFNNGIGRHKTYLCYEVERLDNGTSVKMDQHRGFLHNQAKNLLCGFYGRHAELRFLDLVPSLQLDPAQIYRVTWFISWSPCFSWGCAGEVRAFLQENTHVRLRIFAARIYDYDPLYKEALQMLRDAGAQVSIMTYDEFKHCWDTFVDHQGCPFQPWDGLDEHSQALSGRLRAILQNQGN
DNA dC->dU-editing enzyme APOBEC-3G, sequence (Q9HC16 whole entry): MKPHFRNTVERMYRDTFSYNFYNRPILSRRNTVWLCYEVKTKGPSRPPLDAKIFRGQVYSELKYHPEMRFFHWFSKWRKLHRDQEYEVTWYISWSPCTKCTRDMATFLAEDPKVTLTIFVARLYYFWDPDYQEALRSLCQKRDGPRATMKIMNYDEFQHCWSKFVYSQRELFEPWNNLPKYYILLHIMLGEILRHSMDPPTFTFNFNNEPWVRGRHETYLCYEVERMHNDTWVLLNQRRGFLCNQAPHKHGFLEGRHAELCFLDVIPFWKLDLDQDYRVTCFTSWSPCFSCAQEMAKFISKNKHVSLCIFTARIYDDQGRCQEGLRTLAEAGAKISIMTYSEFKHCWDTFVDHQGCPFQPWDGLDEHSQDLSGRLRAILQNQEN
Large T antigen, sequence (P03070 whole entry): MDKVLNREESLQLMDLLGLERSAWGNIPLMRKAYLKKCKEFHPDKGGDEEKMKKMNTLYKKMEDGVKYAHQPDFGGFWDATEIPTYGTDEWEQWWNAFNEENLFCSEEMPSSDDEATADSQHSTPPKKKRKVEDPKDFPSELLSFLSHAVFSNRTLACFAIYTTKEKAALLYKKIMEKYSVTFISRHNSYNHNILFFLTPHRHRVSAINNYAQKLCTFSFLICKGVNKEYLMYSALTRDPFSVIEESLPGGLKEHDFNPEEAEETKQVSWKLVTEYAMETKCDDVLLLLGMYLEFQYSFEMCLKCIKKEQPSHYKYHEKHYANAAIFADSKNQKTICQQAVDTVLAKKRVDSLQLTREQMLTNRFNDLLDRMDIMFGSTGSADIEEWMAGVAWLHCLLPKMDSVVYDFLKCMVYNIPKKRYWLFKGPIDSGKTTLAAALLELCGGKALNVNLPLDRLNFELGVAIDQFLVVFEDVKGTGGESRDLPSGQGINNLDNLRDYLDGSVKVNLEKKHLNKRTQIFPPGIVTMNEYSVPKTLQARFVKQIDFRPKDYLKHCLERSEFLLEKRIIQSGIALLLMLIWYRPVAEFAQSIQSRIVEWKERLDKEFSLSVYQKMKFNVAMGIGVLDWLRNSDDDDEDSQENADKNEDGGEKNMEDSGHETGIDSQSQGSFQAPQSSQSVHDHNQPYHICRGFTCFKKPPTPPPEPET

In the case of `c1cncc(CNc2ccc3c(c2)OCO3)c1`, the IC50 is 25.4 µM (active) in test [1] and > 80 µM (inactive) in test [2].
In the case of `c1csc(-c2csc(-c3cccs3)n2)c1`, the IC50 in [3] is 25.3 µM (active); in test [4], 5.92 µM (active); in test [5], 20.1 µM (active); in [6], 28.2 µM (active).
As to `NC(=O)C[n+]1cccc2ccccc21`, the results for the EC50 in [7] and in [8] were 29.7 µM (active) and 22.3 µM (active), respectively. For the same compound, the IC50 in test [9] was 2.69 µM (active); in [10], 2.52 µM (active). Moreover, the AC50 in [11] was 311 µM (active).
As for `Cc1cc(C)cc(OCC(=O)N/N=C\c2cn(C)nc2C)c1`, the IC50 in [12], in test [13] and in test [14] was > 79.4 µM (inactive) throughout.
`CCC1CCCCN1CCCNC(=O)c1ccc(CS(=O)(=O)Cc2ccccc2F)o1` (stereo unspecified): the IC50 in [12], in [13] and in [14] was > 79.4 µM (inactive) in each case.
Regarding `CC1=NN(C(N)=S)C(=O)C1N=Nc1ccc(Cl)cc1` (stereo unspecified), the 50% inhibitory concentration (IC50) is 1.59 µM (active) in [3], 2.07 µM (active) in [4], 2.96 µM (active) in test [5] and 2.58 µM (active) in test [6].
